According to US4783462A, “3(2H)pyridazinone, and anti-allergic agent containing it” (Nissan Chemical Industries Ltd., priority 1985, dated 1988):

Experiments:
LTC4 = test: Antagonism in isolated guinea-pig trachea, Test method (i) (Table 3, given as LTC4 antagonism); format: cell-based; settings: Cavia porcellus, 5 min, test compound 10^-5 g/ml, given as LTC4 antagonisms
Protocol: (i) LTC4 and LTD4 antagonisms in guinea-pig trachea
Antagonisms for LTC4 and LTD4 were determined in isolated guinea-pig trachea prepared as spiral strip. Tracheal preparations were suspended under 1 g tension in 10 ml organ baths and they were incubated for 1 hr prior to use. Contractile responses to LTC4 (2×10^-8 g/ml) and LTD4 (2×10^-8 g/ml) were obtained after the maximal response to histamine (10^-4 M). Test compounds dissolved in 100% dimethyl sulfoxide were added to the organ baths (final concentration of 10^-5 g/ml or 10^-6 g/ml) 5 min prior to LTC4 and LTD4 addition, and then contractile responses to LTC4 and LTD4 were compared with those of control which was obtained from a paired trachea in the absence of test compounds. LTC4 - and LTD4 -induced contractions were expressed as a percentage of the maximal response to histamine. The antagonism was determined as follows:
(§1) Antagonism (%)=(1.0-% contraction in test/% contraction in […]

[1] = tested on: anaphylactic bronchoconstriction in passively sensitized guinea-pig; test: Effect on anaphylactic bronchoconstriction in passively sensitized guinea-pig; format: in vivo; settings: 2 mg/kg i.v.
Protocol: (iii) Effect on anaphylactic bronchoconstriction in passively sensitized guinea-pig
Male guinea-pigs (350-450 g) were passively sensitized with intravenous (i.v.) injection of 0.125 ml rabbit anti-EA (egg albumin) serum (Cappel Laboratories) 1 day preceding the experiment. […] Sensitized guinea-pigs were anaesthetized with intraperitoneal injection of urethane (1.5 g/kg). The right jugular vein was cannulated for the administration of the all agents and trachea was cannulated to record total pulmonary resistance. Guinea-pigs were artificially ventilated by a small animal respirator (Shinano, Model SN-480-7) set at a stroke volume of 5 ml and a rate of 50 breaths per min. […] The increase in air overflow volume was expressed as a percentage of the maximum bronchoconstriction obtained by clamping off the trachea. Following surgical preparation, the animals were pretreated with indomethacin (1.0 mg/kg, 10 min), pyrilamine (2 mg/kg, 6 min) and propranolol (0.1 mg/kg, 5 min) prior to the EA challenge (0.1 or 10 mg/kg). All test compounds, 2 mg/kg in 3% Tween 80 or 3% PEG-400, were administered 1 min before the EA challenge. Inhibition (%) of bronchoconstriction was determined as follows: Inhibition (%)=(1.0%-maximum bronchoconstriction in test/% maximum bronchoconstriction in control)×100. The maximum bronchoconstriction was obtained within 20 min after the EA challenge.
In the Table, the dose of EA was 10 mg/kg, and each compound was dissolved or suspended in 3% Tween 80.
The dose of EA was 0.1 mg/kg.

LTD4 = LTD4 antagonism in isolated guinea-pig trachea with indomethacin, Test method (ii) (Table 4); format: cell-based; settings: Cavia porcellus, 0.5 h, LTD4 2×10^-8 g/ml, test compound 10^-6 g/ml, 30 min prior, 5 μmol indomethacin
Protocol: (ii) LTD4 antagonism in guinea-pig trachea
Antagonism for LTD4 was determined in isolated guinea-pig trachea prepared as spiral strip. Tracheal preparations were suspended under 1 g tension in 10 ml organ baths containing 5 μmol of indomethacin and they were incuated for 1 hr prior to use. Contractile responses to LTD4 (2×10^-8 g/ml) were obtained after the maximal response to histamine (10^-4 M). Test compounds dissolved in 100% dimethyl sulfoxide were added to the organ baths (final concentration of 10^-6 g/ml) 30 min prior to LTD4 addition, and then contractile responses to LTD4 were compared with those of control which was obtained from a paired trachea in the absence of test compounds. LTD4 -induced contractions were expressed as a percentage of the maximal response to histamine. The antagonism was determined as follows:
as §1

ddY strain male mice = test: Acute toxicity test, Test method-(2), intraperitoneal; format: in vivo; settings: 7 days
Protocol: The lethal ratio was determined in ddY strain male mice (4 weeks old) at 7 days after the intraperitoneal injection of test compounds.

[2] = Table 5-(2), EA 0.1 mg/kg, Tween 80
[3] = Table 5-(1), EA 10 mg/kg, 3% Tween 80
[4] = Table 5-(2), EA 0.1 mg/kg, PEG-400

SMILES	inhibition at 10 µg/mL (LTC4)	inhibition at 1 µg/mL (LTD4)	also measured
CCOc1ccccc1OCCCNc1cnn(C(C)C)c(=O)c1Cl [compound 71]	88%		Inhibition (%) [1, 2]: 26%
CCCc1cc(C(=O)OC)ccc1OCCCNc1cnn(C)c(=O)c1Cl [compound 43]	63%		Inhibition (%) [1, 3]: 24%
CCCc1cc(C#N)ccc1OCCCNc1cnn(C(C)C)c(=O)c1Cl [compound 60]	98%		Inhibition (%) [1, 3]: 15%
CCCCc1cc(C(=O)OC)ccc1OCCCNc1cnn(CC)c(=O)c1Cl [compound 111]	87%	79%	
CCn1ncc(NCCCOc2ccc(C(=O)OC)cc2C(C)C)c(Cl)c1=O [compound 103]	93%		Inhibition (%) [1, 4]: 69%
COc1cccc(OCCCOc2cnn(C(C)(C)C)c(=O)c2Cl)c1 [compound 27]	65%		Inhibition (%) [1, 3]: 23%; Lethal ratio (Death number/Experimental number) (ddY strain male mice; 100 mg/kg intraperitoneal): 0/2; Lethal ratio (Death number/Experimental number) (ddY strain male mice; 200 mg/kg intraperitoneal): 0/2
CCCc1cc(C#N)ccc1OCCCOc1cnn(CC)c(=O)c1Cl [compound 65]	98%		Inhibition (%) [1, 2]: 27%
CCCc1cc(C(=O)OC)ccc1OCCCNc1cnn(C(C)C)c(=O)c1Cl [Compound No. 44, 4-choloro-5-[3-(2-n-propyl-4-methoxycarbonylphenoxy)propylamino]-2-i-propyl-3(2H)pyridazinone]	90%	63%	Lethal ratio (Death number/Experimental number) (ddY strain male mice; 200 mg/kg intraperitoneal): 0/1; Lethal ratio (Death number/Experimental number) (ddY strain male mice; 400 mg/kg intraperitoneal): 0/1
CCCc1cc(C(=O)OC)ccc1OCC(=O)CNc1cnn(C(C)C)c(=O)c1Cl [Compound No. 161, 4-Chloro-5-[3-(2-n-propyl-4-methoxycarbonylphenoxy)-2-oxopropylamino]-2-i-propyl-3(2H)pyridazinone]	71%		Inhibition (%) [1, 2]: 20%
CCCc1cc(O)ccc1OCCCNc1cnn(C(C)C)c(=O)c1Cl [compound 109]	99%	69%	
CCn1ncc(OCCCOc2cccc(OC)c2)c(Cl)c1=O [compound 28]	61%		Inhibition (%) [1, 3]: 17%; Lethal ratio (Death number/Experimental number) (ddY strain male mice; 200 mg/kg intraperitoneal): 0/2; Lethal ratio (Death number/Experimental number) (ddY strain male mice; 400 mg/kg intraperitoneal): 0/1
COc1ccc(CCNc2cnn(C(C)C)c(=O)c2Cl)cc1 [compound 55]	72%		Inhibition (%) [1, 3]: 26%
CCc1cc(C=O)ccc1OCCCNc1cnn(CC)c(=O)c1Br [compound 199]		65%	
CCCCCc1cc(C(=O)O)ccc1OCCCNc1cnn(CC)c(=O)c1Cl [compound 202]		89%	
CCc1cc(C(N)=O)ccc1OCCCNc1cnn(C(C)C)c(=O)c1Cl [compound 102]	93%		Inhibition (%) [1, 4]: 73%
CCCCc1cc(C(N)=O)ccc1OCCCNc1cnn(CC)c(=O)c1Cl [compound 115]	94%	61%	
CCCc1cc(C(=O)O)ccc1OCCCNc1cnn(C(C)C)c(=O)c1Cl [Compound No. 67]	99%		Inhibition (%) [1, 2]: 62%
CCCCc1cc(C(N)=O)ccc1OCCCNc1cnn(CC)c(=O)c1Br [Compound No. 180, 4-bromo-5-[3-(2-n-butyl-4-carbamoylphenoxy)propylamino]-2-ethyl-3(2H) pyridazinone]		88%	
CCCc1cc(C(=O)OC)ccc1OCCCNc1cnn(C(C)C)c(=O)c1Br [compound 124]		92%	
CCOc1ccccc1OCCCNc1cnn(CC)c(=O)c1Cl [compound 51]	82%		Inhibition (%) [1, 3]: 15%

SMILES	inhibition at 10 µg/mL (LTC4)	inhibition at 1 µg/mL (LTD4)	also measured
CCCc1cc(C(=O)OC)ccc1OCCCOc1cnn(C(C)C)c(=O)c1Cl [compound 85]	78%		Inhibition (%) [1, 2]: 23%
CCCCCc1cc(C(=O)OC)ccc1OCCCNc1cnn(CC)c(=O)c1Br [compound 204]		95%	
CCCc1cc(C(=O)O)ccc1OCCCN(C)c1cnn(C(C)C)c(=O)c1Cl [compound 74]	73%		Inhibition (%) [1, 2]: 50%
CCCc1cc(C(=O)O)ccc1OCCCNc1cnn(C(C)C)c(=O)c1Br [compound 125]		84%	
CCCc1cc(OC)ccc1OCCCNc1cnn(CC)c(=O)c1Br [compound 135]		57%	
CCCCc1cc(C(=O)O)ccc1OCCCNc1cnn(CC)c(=O)c1Br [compound 179]		63%	
CCCCCc1cc(C(=O)O)ccc1OCCCNc1cnn(CC)c(=O)c1Br [compound 205]		96%	
CCCc1cc(C(=O)OCC)ccc1OCCCNc1cnn(C(C)C)c(=O)c1Cl [Compound No. 64, 4-chloro-5-[3-(2-n-propyl-4-ethoxycarbonylphenoxy)propylamino]-2-i-propyl-3(2H)pyridazinone]	87%		Inhibition (%) [1, 2]: 56%
CCCc1cc(C(=O)OC)ccc1OCC(CNc1cnn(C(C)C)c(=O)c1Cl)OC (centres unmarked) [compound 162]	81%		Inhibition (%) [1, 2]: 49%
CCCc1cc(C(=O)OC)ccc1OCC(CN(C)c1cnn(C(C)C)c(=O)c1Cl)OC (centres unmarked) [compound 164]	71%		Inhibition (%) [1, 2]: 40%
CCC(C)c1cc(C(=O)O)ccc1OCCCNc1cnn(CC)c(=O)c1Br (centres unmarked) [compound 218]		84%	
CCc1cc(C#N)ccc1OCCCNc1cnn(C(C)C)c(=O)c1Cl [Compound No. 98]	89%	80%	
CCCCc1cc(C(=O)OC)ccc1OCCCNc1cnn(C(C)C)c(=O)c1Br [Compound No. 126]		90%	
CCCc1cc(O)ccc1OCCCNc1cnn(CC)c(=O)c1Br [compound 197]		82%	
CCCCc1cc(C(=O)O)ccc1OCCCNc1cnn(CC)c(=O)c1Cl [compound 113]	100%	54%	
CCCCc1cc(C#N)ccc1OCCCNc1cnn(CC)c(=O)c1Br [Compound No. 181, 4-Bromo-5-[3-(2-n-butyl-4-cyanophenoxy)propylamino]-2-ethyl-3(2H)pyridazinone]		70%	
CCc1cc(OC)ccc1OCCCNc1cnn(CC)c(=O)c1Br [compound 137]		53%	
CCCc1cc(OC)ccc1OCCCNc1cnn(C(C)C)c(=O)c1Cl [compound 105]	89%	52%	
CCCc1cc(C(=O)O)ccc1OCC(CNc1cnn(C(C)C)c(=O)c1Cl)OC (centres unmarked) [compound 163]	74%		Inhibition (%) [1, 2]: 32%
CCCCCc1cc(C(N)=O)ccc1OCCCNc1cnn(CC)c(=O)c1Cl [compound 203]		94%	
